Results taken from patent US4479943A, “3-Demethoxyistamycin B, the 2"-N-formimidoyl derivative thereof and pharmaceutical composition containing same” (Zaidan Hojin Biseibutsu Kagaku Kenkyu Kai, priority 1982, dated 1984).
In brackets after ≈: the same amount, converted by molar mass.

Experiments:
[1] = test system: Klebsiella pneumoniae PCI602; test: Antibacterial MIC, standard serial dilution; type: cell-based; details: nutrient agar, 37° C., 17 hours, as free base
bacteria = details: in words; earlier work; cited from earlier work
Providencia sp. Pv16 = test: Antibacterial MIC, standard serial dilution; type: cell-based; details: nutrient agar, 37° C., 17 hours, as free base
Escherichia coli NIHJ = test: Antibacterial MIC, standard serial dilution; type: cell-based; details: nutrient agar, 37° C., 17 hours, as free base
[2] = test system: Pseudomonas aeruginosa B-13; test: Antibacterial MIC, standard serial dilution; type: cell-based; details: nutrient agar, 37° C., 17 hours, as free base
[3] = test system: Pseudomonas maltophilia GN 907; test: Antibacterial MIC, standard serial dilution; type: cell-based; details: nutrient agar, 37° C., 17 hours, as free base
[4] = test system: Bacillus subtilis PCI 219; test: Antibacterial MIC, standard serial dilution; type: cell-based; details: nutrient agar, 37° C., 17 hours, as free base
[5] = test system: Pseudomonas aeruginosa 99; test: Antibacterial MIC, standard serial dilution; type: cell-based; details: nutrient agar, 37° C., 17 hours, as free base
Salmonella typhi T-63 = test: Antibacterial MIC, standard serial dilution; type: cell-based; details: nutrient agar, 37° C., 17 hours, as free base
[6] = test system: Pseudomonas aeruginosa ROS 134/PU21; test: Antibacterial MIC, standard serial dilution; type: cell-based; details: nutrient agar, 37° C., 17 hours, as free base
Proteus vulgaris 0X19 = test: Antibacterial MIC, standard serial dilution; type: cell-based; details: nutrient agar, 37° C., 17 hours, as free base
[7] = test system: Bacillus cereus ATCC 10702; test: Antibacterial MIC, standard serial dilution; type: cell-based; details: nutrient agar, 37° C., 17 hours, as free base
Escherichia coli W677 = test: Antibacterial MIC, standard serial dilution; type: cell-based; details: nutrient agar, 37° C., 17 hours, as free base
[8] = test system: Pseudomonas aeruginosa K-Ps 102; test: Antibacterial MIC, standard serial dilution; type: cell-based; details: nutrient agar, 37° C., 17 hours, as free base
Escherichia coli K-12 = test: Antibacterial MIC, standard serial dilution; type: cell-based; details: nutrient agar, 37° C., 17 hours, as free base
[9] = test system: Escherichia coli K-12 ML1630; test: Antibacterial MIC, standard serial dilution; type: cell-based; details: nutrient agar, 37° C., 17 hours, as free base
[10] = test system: Pseudomonas aeruginosa PST1; test: Antibacterial MIC, standard serial dilution; type: cell-based; details: nutrient agar, 37° C., 17 hours, as free base
[11] = test system: Escherichia coli K-12 C600 R135; test: Antibacterial MIC, standard serial dilution; type: cell-based; details: nutrient agar, 37° C., 17 hours, as free base
Serratia sp. 4 = test: Antibacterial MIC, standard serial dilution; type: cell-based; details: nutrient agar, 37° C., 17 hours, as free base
[12] = test system: Staphylococcus epidermidis 109; test: Antibacterial MIC, standard serial dilution; type: cell-based; details: nutrient agar, 37° C., 17 hours, as free base
[13] = test system: Escherichia coli K-12 LA290 R55; test: Antibacterial MIC, standard serial dilution; type: cell-based; details: nutrient agar, 37° C., 17 hours, as free base
Serratia marcescens = test: Antibacterial MIC, standard serial dilution; type: cell-based; details: nutrient agar, 37° C., 17 hours, as free base
Providencia sp. 2991 = test: Antibacterial MIC, standard serial dilution; type: cell-based; details: nutrient agar, 37° C., 17 hours, as free base
[14] = test system: Pseudomonas aeruginosa A3; test: Antibacterial MIC, standard serial dilution; type: cell-based; details: nutrient agar, 37° C., 17 hours, as free base
[15] = test system: Micrococcus flavus FDA 16; test: Antibacterial MIC, standard serial dilution; type: cell-based; details: nutrient agar, 37° C., 17 hours, as free base
[16] = test system: Klebsiella pneumoniae 22#3038; test: Antibacterial MIC, standard serial dilution; type: cell-based; details: nutrient agar, 37° C., 17 hours, as free base
[17] = test system: Pseudomonas aeruginosa GN315; test: Antibacterial MIC, standard serial dilution; type: cell-based; details: nutrient agar, 37° C., 17 hours, as free base
Serratia sp. SOU = test: Antibacterial MIC, standard serial dilution; type: cell-based; details: nutrient agar, 37° C., 17 hours, as free base
[18] = test system: Pseudomonas aeruginosa TI-13; test: Antibacterial MIC, standard serial dilution; type: cell-based; details: nutrient agar, 37° C., 17 hours, as free base
[19] = test system: Pseudomonas aeruginosa No. 12; test: Antibacterial MIC, standard serial dilution; type: cell-based; details: nutrient agar, 37° C., 17 hours, as free base
[20] = test system: Corynebacterium bovis 1810; test: Antibacterial MIC, standard serial dilution; type: cell-based; details: nutrient agar, 37° C., 17 hours, as free base
[21] = test system: Shigella dysenteriae JS11910; test: Antibacterial MIC, standard serial dilution; type: cell-based; details: nutrient agar, 37° C., 17 hours, as free base
[22] = test system: Staphylococcus aureus Ap01; test: Antibacterial MIC, standard serial dilution; type: cell-based; details: nutrient agar, 37° C., 17 hours, as free base
Bacillus anthracis = type: cell-based; details: nutrient agar, 37° C., 17 hours, as free base
[23] = test system: Pseudomonas aeruginosa H9; test: Antibacterial MIC, standard serial dilution; type: cell-based; details: nutrient agar, 37° C., 17 hours, as free base
[24] = test system: Staphylococcus aureus FDA 209P; test: Antibacterial MIC, standard serial dilution; type: cell-based; details: nutrient agar, 37° C., 17 hours, as free base
[25] = test system: Bacillus subtilis NRRL B-558; test: Antibacterial MIC, standard serial dilution; type: cell-based; details: nutrient agar, 37° C., 17 hours, as free base
Sarcina lutea PCI 1001 = test: Antibacterial MIC, standard serial dilution; type: cell-based; details: nutrient agar, 37° C., 17 hours, as free base
[26] = test system: Escherichia coli JR66/W677; test: Antibacterial MIC, standard serial dilution; type: cell-based; details: nutrient agar, 37° C., 17 hours, as free base
Escherichia coli JR225 = test: Antibacterial MIC, standard serial dilution; type: cell-based; details: nutrient agar, 37° C., 17 hours, as free base
[27] = test system: Escherichia coli K-12 ML1410; test: Antibacterial MIC, standard serial dilution; type: cell-based; details: nutrient agar, 37° C., 17 hours, as free base
[28] = test system: Staphylococcus aureus Smith; test: Antibacterial MIC, standard serial dilution; type: cell-based; details: nutrient agar, 37° C., 17 hours, as free base
Proteus rettgeri GN311 = test: Antibacterial MIC, standard serial dilution; type: cell-based; details: nutrient agar, 37° C., 17 hours, as free base
[29] = test system: Escherichia coli K-12 J5R11-2; test: Antibacterial MIC, standard serial dilution; type: cell-based; details: nutrient agar, 37° C., 17 hours, as free base
[30] = test system: Escherichia coli K-12 ML1629; test: Antibacterial MIC, standard serial dilution; type: cell-based; details: nutrient agar, 37° C., 17 hours, as free base
[31] = test system: Mycobacterium smegmatis ATCC 607; test: Antibacterial MIC, standard serial dilution; type: cell-based; details: nutrient agar, 37° C., 17 hours, as free base
[32] = test system: Escherichia coli K-12 R388; test: Antibacterial MIC, standard serial dilution; type: cell-based; details: nutrient agar, 37° C., 17 hours, as free base
[33] = test system: Pseudomonas aeruginosa H11; test: Antibacterial MIC, standard serial dilution; type: cell-based; details: nutrient agar, 37° C., 17 hours, as free base
[34] = test system: Escherichia coli K-12 LA290 R56; test: Antibacterial MIC, standard serial dilution; type: cell-based; details: nutrient agar, 37° C., 17 hours, as free base
Proteus rettgeri GN466 = test: Antibacterial MIC, standard serial dilution; type: cell-based; details: nutrient agar, 37° C., 17 hours, as free base
[35] = test system: Salmonella enteritidis 1891; test: Antibacterial MIC, standard serial dilution; type: cell-based; details: nutrient agar, 37° C., 17 hours, as free base
[36] = test system: Pseudomonas aeruginosa 21-75; test: Antibacterial MIC, standard serial dilution; type: cell-based; details: nutrient agar, 37° C., 17 hours, as free base

## CNCC1CCC(N)C(OC2C(N)CC(O)C(N(C)C(=O)CN)C2O)O1 (stereo not shown) [Demethyl ista B, 3-O-demethylistamycin B]
[1]
  MIC: 1.56 µg/mL (≈ 4.15 µM)
bacteria
  antibacterial activity: active not only against Pseudomonas aeruginosa but also against a variety of resistant bacteria
Providencia sp. Pv16
  MIC: 0.78 µg/mL (≈ 2.08 µM)
Escherichia coli NIHJ
  MIC: 0.39 µg/mL (≈ 1.04 µM)
[2]
  MIC: 25 µg/mL (≈ 66.6 µM)
[3]
  MIC: 100 µg/mL (≈ 266 µM)
[4]
  MIC: 0.39 µg/mL (≈ 1.04 µM)
[5]
  MIC: 25 µg/mL (≈ 66.6 µM)
Salmonella typhi T-63
  MIC: 0.39 µg/mL (≈ 1.04 µM)
[6]
  MIC: 50 µg/mL (≈ 133 µM)
Proteus vulgaris 0X19
  MIC: 0.39 µg/mL (≈ 1.04 µM)
[7]
  MIC: 1.56 µg/mL (≈ 4.15 µM)
Escherichia coli W677
  MIC: 0.78 µg/mL (≈ 2.08 µM)
[8]
  MIC: 6.25 µg/mL (≈ 16.6 µM)
Escherichia coli K-12
  MIC: 0.78 µg/mL (≈ 2.08 µM)
[9]
  MIC: 3.13 µg/mL (≈ 8.34 µM)
[10]
  MIC: 12.5 µg/mL (≈ 33.3 µM)
[11]
  MIC: 1.56 µg/mL (≈ 4.15 µM)
Serratia sp. 4
  MIC: 12.5 µg/mL (≈ 33.3 µM)
[12]
  MIC: 0.39 µg/mL (≈ 1.04 µM)
[13]
  MIC: 0.78 µg/mL (≈ 2.08 µM)
Serratia marcescens
  MIC: 1.56 µg/mL (≈ 4.15 µM)
Providencia sp. 2991
  MIC: 1.56 µg/mL (≈ 4.15 µM)
[14]
  MIC: 0.20 µg/mL (≈ 0.533 µM)
[15]
  MIC: 3.13 µg/mL (≈ 8.34 µM)
[16]
  MIC: 3.13 µg/mL (≈ 8.34 µM)
[17]
  MIC: 6.25 µg/mL (≈ 16.6 µM)
Serratia sp. SOU
  MIC: 6.25 µg/mL (≈ 16.6 µM)
[18]
  MIC: 6.25 µg/mL (≈ 16.6 µM)
[19]
  MIC: 12.5 µg/mL (≈ 33.3 µM)
[20]
  MIC: 0.39 µg/mL (≈ 1.04 µM)
[21]
  MIC: 3.13 µg/mL (≈ 8.34 µM)
[22]
  MIC: 0.39 µg/mL (≈ 1.04 µM)
Bacillus anthracis
  MIC: 0.78 µg/mL (≈ 2.08 µM)
[23]
  MIC: 12.5 µg/mL (≈ 33.3 µM)
[24]
  MIC: 0.39 µg/mL (≈ 1.04 µM)
[25]
  MIC: 0.39 µg/mL (≈ 1.04 µM)
Sarcina lutea PCI 1001
  MIC: 0.39 µg/mL (≈ 1.04 µM)
[26]
  MIC: 1.56 µg/mL (≈ 4.15 µM)
Escherichia coli JR225
  MIC: 0.78 µg/mL (≈ 2.08 µM)
[27]
  MIC: 3.13 µg/mL (≈ 8.34 µM)
[28]
  MIC: 0.39 µg/mL (≈ 1.04 µM)
Proteus rettgeri GN311
  MIC: 0.39 µg/mL (≈ 1.04 µM)
[29]
  MIC: 1.56 µg/mL (≈ 4.15 µM)
[30]
  MIC: 1.56 µg/mL (≈ 4.15 µM)
[31]
  MIC: 0.78 µg/mL (≈ 2.08 µM)
[32]
  MIC: 0.78 µg/mL (≈ 2.08 µM)
[33]
  MIC: 25 µg/mL (≈ 66.6 µM)
[34]
  MIC: 0.78 µg/mL (≈ 2.08 µM)
Proteus rettgeri GN466
  MIC: 0.39 µg/mL (≈ 1.04 µM)
[35]
  MIC: 1.56 µg/mL (≈ 4.15 µM)
[36]
  MIC: 25 µg/mL (≈ 66.6 µM)
